# From patent US20250109127A1, “METHODS OF USE OF PHENOXYPROPYLAMINE COMPOUNDS TO TREAT DEPRESSION” (Minerva Neurosciences, Inc., priority 2013, published 2025)
# “And” between values parts separate entries of the source, which are not always exact repeats. Identical values can stand only once. Counter-ions that a name gives are not always drawn.
# Tested on: 5-HIAA release in the rat prefrontal cortex
# Experiment: Microdialysis: 5-HIAA release in prefrontal cortex after I.P. administration
# Type: in vivo
# Settings: for 5-HIAA (% of respective basal), individual animal: 0.1 mg/kg I.P., c2-c9 = R#13,14,20,19,25,26,31,32; for 5-HIAA (% of respective basal), individual animal / 5-HIAA release, individual animals: hydrochloride; for 5-HIAA release, MEAN / 5-HIAA release, individual animals: 0.3 mg/kg I.P.; for 5-HIAA release, MEAN: n = 8; for 5-HIAA release, individual animals: one column per animal R#11,12,18,23,29,30,17,24
# Description: The aim of the study was to evaluate, using microdialysis, the effects of an intraperitoneal (I.P.) administration in rats of three different doses of SON-117 on dopamine and its metabolites, serotonin and its metabolite (5-HIAA), and norepinephrine levels in prefrontal cortex.
# Thirty-two adult male Wistar rats were used for the whole study (4 groups of eight animals planned for the study, Table 1).
# Surgery was performed on rats weighing about 300 g at the beginning of the experiments. Rats were anaesthetized with Ketamine (50 mg/kg) & Xylazine (15 mg/kg) by intramuscular administration. The animals were placed in a stereotaxic apparatus in the flat-skull position at a constant setting of −3.3 mm between ear bars and the incisor bar. The animals were treated with a local anesthesic (xylocaine 1%, Astra Zeneca) and an analgesic (Temgesic, from Schering Plough, 0.05 mg/kg, s.c.). A rostrocaudal midline incision was made with a lancet to expose the dorsal skull surface. The “stereotaxic zero” was defined by the Bregma in accordance with Paxinos and Watson's atlas (1986). A hole was drilled in the skull with a drill and the meninges were pierced with a sterile needle to implant a CMA12 guide cannula which later received the dialysis probe.
# Coordinates used for implanting guide cannula in prefrontal cortex from Bregma were anteroposterior 3.7 mm, mediolateral 0.8 mm, and dorsoventral −2 mm (top of the probe was at −5 mm). The guide cannula was fixed to the skull with two stainless steel screws (1.88 mm outside diameter) anchored. An application of dental cement was added. A plastic collar allowed each animal to be tethered to a Swivel assembly of the CMA 120 awake animal system. Following surgery, rats were kept in individual cages and allowed to recover for a minimum of 3-5 days before the experimentation. The rats were handled and put in plastic bowl for 10 min at least every day to habituate the animals to their new environment for the dialysis. An I.P. administration with saline was also performed every day.
# Dialysis probes (CMA12/3 mm, membrane, 20 kD cut-off, Carnegie Medicine, Stockholm, Sweden), were carefully washed before inserting into the guide cannula. The wash was performed with the artificial cerebrospinal fluid (aCSF) medium (NaCl 147 mM, KCl 2.7 mM, CaCl2 1.2 mM, MgCl2 0.85 mM) at room temperature. The dialysis system was then equilibrated at 20° C. at a perfusion rate of 1 μl/min with a Carnegie pump (CMA100). All catheters (FEP tubing, internal volume of 1.2 μl/10 cm, and tubing adaptors) used for microdialysis were treated in the same conditions.
# The probes duly prepared were inserted into the guide cannula and the CMA120 Swivel assembly secured to the animal using a plastic collar. Flow through the dialysis probe with aCSF was maintained at a rate of 1 μl/min during the whole experimentation. The first four fractions (corresponding to 2 hours) were discarded to avoid the effects of parenchymal disturbance and to ensure that an approximate steady-state level was reached. Fractions were then collected over a period of 8.5 h during which time the animals remained quiet. The dialysates were automatically collected with an autosampler (microfraction collector CMA 140, Carnegie Medicin) and stored at −80° C. until analysis. […] Perfusion was then maintained for 7 hours with aCSF. The dialysates (30 μl) were collected into 300 μl vials, transferred into dry ice and then kept frozen (−80° C.) until analysis. Frozen samples were shipped to a partner for analysis. At the end of the microdialysis study, a PBS with colored ink was perfused through the probe in order to visualize the dialyzed area.
# Catecholamine assay: Concentrations of dopamine, DOPAC, HVA, 5-HIAA, 5-HT, and norepinephrin were determined for each sample by HPLC coupled with electrochemical detection.
structure (smiles),measurement,setting,value
"Cc1nnc(-c2cc3c(OC[C@@H](O)CN4CCC(c5ccc(Cl)c(Cl)c5)CC4)cccc3o2)o1 [SON-117, (S)-1-(4-(3,4-dichlorophenyl)piperidino)-3-(2-(5-methyl-1,3,4-oxadiazol-2-yl)benzo(b)furan-4-yloxy)-2-propanol hydrochloride]","5-HIAA (% of respective basal), individual animal",T30-T1 h,123.49 % of respective basal and 103.49 % of respective basal and 107.39 % of respective basal and 112.69 % of respective basal and 111.19 % of respective basal and 139.2 % of respective basal and 117.52 % of respective basal and 104.09 % of respective basal
same,"5-HIAA (% of respective basal), individual animal",T1 h 30-T2 h,92.61 % of respective basal and 104.00 % of respective basal and 73.42 % of respective basal and 136.95 % of respective basal and 121.36 % of respective basal and 90.88 % of respective basal and 109.96 % of respective basal and 88.3 % of respective basal
same,"5-HIAA (% of respective basal), individual animal",T1 h-T1 h 30,133.03 % of respective basal and 136.32 % of respective basal and 86.58 % of respective basal and 118.45 % of respective basal and 137.53 % of respective basal and 136.04 % of respective basal and 114.03 % of respective basal and 94.61 % of respective basal
same,"5-HIAA (% of respective basal), individual animal",T2 h 30-T3 h,85.72 % of respective basal and 87.35 % of respective basal and 46.33 % of respective basal and 101.63 % of respective basal and 145.61 % of respective basal and 142.25 % of respective basal and 116.28 % of respective basal and 27.66 % of respective basal
same,"5-HIAA (% of respective basal), individual animal",T2 h-T2 h 30,100.99 % of respective basal and 85.23 % of respective basal and 60.74 % of respective basal and 101.82 % of respective basal and 125.47 % of respective basal and 100.57 % of respective basal and 111.12 % of respective basal and 50.78 % of respective basal
same,"5-HIAA (% of respective basal), individual animal",T3 h 30-T4 h,85.88 % of respective basal and 94.27 % of respective basal and 31.74 % of respective basal and 96.48 % of respective basal and 188.3 % of respective basal and 137.13 % of respective basal and 101.46 % of respective basal and 21.73 % of respective basal
same,"5-HIAA (% of respective basal), individual animal",T3 h-T3 h 30,129.21 % of respective basal and 80.95 % of respective basal and 41.77 % of respective basal and 96.17 % of respective basal and 133.55 % of respective basal and 113.01 % of respective basal and 113.45 % of respective basal and 29.04 % of respective basal
same,"5-HIAA (% of respective basal), individual animal",T4 h 30-T5 h,135.57 % of respective basal and 84.63 % of respective basal and 82.26 % of respective basal and 21.52 % of respective basal and 127.36 % of respective basal and 130.30 % of respective basal and 108.83 % of respective basal and 86.42 % of respective basal
same,"5-HIAA (% of respective basal), individual animal",T4 h-T4 h 30,155.28 % of respective basal and 81.87 % of respective basal and 29.82 % of respective basal and 104.10 % of respective basal and 154.95 % of respective basal and 128.712 % of respective basal and 116.56 % of respective basal and 100.63 % of respective basal
same,"5-HIAA (% of respective basal), individual animal",T5 h 30-T6 h,139.17 % of respective basal and 82.04 % of respective basal and 19.18 % of respective basal and 72.04 % of respective basal and 120.26 % of respective basal and 106.59 % of respective basal and 103.65 % of respective basal and 79.99 % of respective basal
same,"5-HIAA (% of respective basal), individual animal",T5 h-T5 h 30,141.25 % of respective basal and 94.73 % of respective basal and 20.29 % of respective basal and 84.33 % of respective basal and 123.82 % of respective basal and 104.61 % of respective basal and 111.73 % of respective basal and 87.84 % of respective basal
same,"5-HIAA (% of respective basal), individual animal",T6 h 30-T7 h,142.73 % of respective basal and 92.55 % of respective basal and 23.25 % of respective basal and 79.21 % of respective basal
same,"5-HIAA (% of respective basal), individual animal",T6 h-T6 h 30,150.15 % of respective basal and 87.80 % of respective basal and 10.87 % of respective basal and 82.34 % of respective basal and 124.74 % of respective basal and 107.55 % of respective basal and 96.41 % of respective basal and 77.86 % of respective basal
same,"5-HIAA release, MEAN",T0-T30 min,103.44 % of respective basal
same,"5-HIAA release, MEAN",T30-T1 h,100.34 % of respective basal
same,"5-HIAA release, individual animals",T30-T1 h,98.98 % of respective basal and 79.36 % of respective basal and 110.17 % of respective basal and 105.67 % of respective basal and 80.63 % of respective basal and 95.45 % of respective basal and 117.90 % of respective basal and 114.56 % of respective basal
same,"5-HIAA release, MEAN",T1 h 30-T2 h,92.27 % of respective basal
same,"5-HIAA release, individual animals",T1 h 30-T2 h,107.81 % of respective basal and 80.74 % of respective basal and 99.11 % of respective basal and 100.15 % of respective basal and 74.98 % of respective basal and 49.45 % of respective basal and 122.26 % of respective basal and 103.65 % of respective basal
same,"5-HIAA release, MEAN",T1 h-T1 h 30,98.46 % of respective basal
same,"5-HIAA release, individual animals",T1 h-T1 h 30,102.59 % of respective basal and 87.99 % of respective basal and 119.49 % of respective basal and 107.50 % of respective basal and 64.53 % of respective basal and 82.55 % of respective basal and 108.28 % of respective basal and 114.78 % of respective basal
same,"5-HIAA release, MEAN",T2 h 30-T3 h,88.58 % of respective basal
same,"5-HIAA release, individual animals",T2 h 30-T3 h,90.73 % of respective basal and 88.56 % of respective basal and 94.96 % of respective basal and 87.45 % of respective basal and 59.92 % of respective basal and 79.89 % of respective basal and 107.14 % of respective basal and 99.98 % of respective basal
same,"5-HIAA release, MEAN",T2 h-T2 h 30,88.16 % of respective basal
same,"5-HIAA release, individual animals",T2 h-T2 h 30,82.87 % of respective basal and 87.22 % of respective basal and 100.63 % of respective basal and 93.66 % of respective basal and 63.67 % of respective basal and 70.87 % of respective basal and 109.73 % of respective basal and 96.64 % of respective basal
